Values belong to the compound of their own block, whether it stands above or below them.
Biological target: T1, human P2X4 (Homo sapiens, UniProt Q99571)
T1 sequence (Q99571 1-388): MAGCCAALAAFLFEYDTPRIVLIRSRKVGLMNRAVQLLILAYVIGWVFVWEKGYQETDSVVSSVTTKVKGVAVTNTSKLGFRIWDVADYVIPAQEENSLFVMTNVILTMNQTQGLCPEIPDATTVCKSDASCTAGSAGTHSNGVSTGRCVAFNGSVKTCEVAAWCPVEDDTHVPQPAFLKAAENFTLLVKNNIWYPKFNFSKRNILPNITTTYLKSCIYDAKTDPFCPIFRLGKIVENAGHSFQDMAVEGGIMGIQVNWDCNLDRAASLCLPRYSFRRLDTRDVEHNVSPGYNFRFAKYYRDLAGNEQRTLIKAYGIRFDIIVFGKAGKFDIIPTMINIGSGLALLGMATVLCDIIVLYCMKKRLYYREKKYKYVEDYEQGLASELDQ
Assay: Human P2X4 HEK Cell FLIPR Assay
Type: cell-based
Conditions: agonist Bz-ATP at EC80; for Emax: HEK293, HEK293 cells, percentage of maximal inhibition, read-out: Human P2X4 HEK Cells (FLIPR Assay) avg Efficacy [%]; for IC50: HEK293 cells, individual values listed where some fall outside detection range
In short: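 Calcium flux read by FLIPR for 120 sec after Bz-ATP challenge at EC80 (established each assay day), following 30 min room-temperature compound preincubation in dye-loaded stable human P2X4 HEK293 cells. Peak RFU over basal normalized to agonist control; IC50, maximal inhibition and Hill coefficient from triplicate means.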

Emax: 96%
IC50: 21 nM
SMILES: Cc1cn(-c2ccc(NC(=O)Cc3ccccc3Cl)cc2S(N)(=O)=O)cn1 [Example 251, 2-(2-Chlorophenyl)-N-[4-(4-methyl-1H-imidazol-1-yl)-3-sulfamoylphenyl]acetamide]

Emax: 88%
IC50: 808 nM
SMILES: NS(=O)(=O)c1cc(NC(=O)Cc2ccccc2Cl)ccc1-n1ccc(C2CC2)n1 [Example 252, 2-(2-Chlorophenyl)-N-[4-(3-cyclopropyl-1H-pyrazol-1-yl)-3-sulfamoylphenyl]-acetamide]

Emax: 85%
IC50: 257 nM
SMILES: NS(=O)(=O)c1cc(NC(=O)Cc2ccccc2Cl)ccc1-n1cc2cccnc2n1 [Example 253, 2-(2-Chlorophenyl)-N-[4-(2H-pyrazolo[3,4-b]pyridin-2-yl)-3-sulfamoylphenyl]-acetamide]

Emax: 102%
IC50: 41 nM
SMILES: NS(=O)(=O)c1cc(NC(=O)Cc2ccccc2Cl)ccc1-n1cc2ccncc2n1 [Example 254, 2-(2-Chlorophenyl)-N-[4-(2H-pyrazolo[3,4-c]pyridin-2-yl)-3-sulfamoylphenyl]-acetamide]

Emax: 81%
IC50: 25 nM
SMILES: NS(=O)(=O)c1cc(NC(=O)Cc2ccccc2Cl)ccc1-n1cc2ncccc2n1 [Example 255, 2-(2-Chlorophenyl)-N-[4-(2H-pyrazolo[4,3-b]pyridin-2-yl)-3-sulfamoylphenyl]-acetamide]

Emax: 83%
IC50: 130 nM
SMILES: COCCc1cnn(-c2ccc(NC(=O)Cc3ccccc3Cl)cc2S(N)(=O)=O)c1 [Example 256, 2-(2-Chlorophenyl)-N-{4-[4-(2-methoxyethyl)-1H-pyrazol-1-yl]-3-sulfamoylphenyl}-acetamide]

Emax: 81%
IC50: 51 nM
SMILES: NS(=O)(=O)c1cc(NC(=O)Cc2ccccc2Cl)ccc1-n1ccc(F)n1 [Example 257, 2-(2-Chlorophenyl)-N-[4-(3-fluoro-1H-pyrazol-1-yl)-3-sulfamoylphenyl]acetamide]

Emax: 97%
IC50: 30 nM
SMILES: NS(=O)(=O)c1cc(NC(=O)Cc2ccccc2Cl)ccc1-n1cc(NCC(F)F)cn1 [Example 258, 2-(2-Chlorophenyl)-N-(4-{4-[(2,2-difluoroethyl)amino]-1H-pyrazol-1-yl}-3-sulfamoyl-phenyl)acetamide]

Emax: 91%
IC50: 50 nM
SMILES: NS(=O)(=O)c1cc(NC(=O)Cc2ccccc2Cl)ccc1-n1cc(CC(F)F)cn1 [Example 259, 2-(2-Chlorophenyl)-N-{4-[4-(2,2-difluoroethyl)-1H-pyrazol-1-yl]-3-sulfamoylphenyl}-acetamide]

Emax: 100%
IC50: 398 nM
SMILES: NS(=O)(=O)c1cc(NC(=O)Cc2ccccc2Cl)ccc1-n1cc(CNCC(F)F)cn1 [Example 260, 2-(2-Chlorophenyl)-N-[4-(4-{[(2,2-difluoroethyl)amino]methyl}-1H-pyrazol-1-yl)-3-sulfamoylphenyl]acetamide]

Emax: 92%
IC50: 235 nM
SMILES: Cc1cnn(-c2ccc(NC(=O)Cc3ccccc3F)cc2S(N)(=O)=O)c1 [Example 262, 2-(2-Fluorophenyl)-N-[4-(4-methyl-1H-pyrazol-1-yl)-3-sulfamoylphenyl]acetamide]

Emax: 96%
IC50: 337 nM
SMILES: NS(=O)(=O)c1cc(NC(=O)Cc2ccccc2F)ccc1-n1cnc(C2CC2)c1 [Example 263, N-[4-(4-Cyclopropyl-1H-imidazol-1-yl)-3-sulfamoylphenyl]-2-(2-fluorophenyl)-acetamide]

Emax: 76%
IC50: 4070 nM
SMILES: NS(=O)(=O)c1cc(NC(=O)Cc2ccccc2F)ccc1-n1ccc(C2CC2)n1 [Example 264, N-[4-(3-Cyclopropyl-1H-pyrazol-1-yl)-3-sulfamoylphenyl]-2-(2-fluorophenyl)-acetamide]

Emax: 84%
IC50: 352 nM
SMILES: COCCc1cnn(-c2ccc(NC(=O)Cc3ccccc3F)cc2S(N)(=O)=O)c1 [Example 265, 2-(2-Fluorophenyl)-N-{4-[4-(2-methoxyethyl)-1H-pyrazol-1-yl]-3-sulfamoyl-phenyl}acetamide]

Emax: 103%
IC50: 5 nM
SMILES: COCCn1cc(-c2ccc(NC(=O)Cc3ccccc3Cl)cc2S(N)(=O)=O)cn1 [Example 268, 2-(2-Chlorophenyl)-N-{4-[1-(2-methoxyethyl)-1H-pyrazol-4-yl]-3-sulfamoylphenyl}-acetamide]

Emax: 51%
IC50: > 25000 nM
SMILES: NS(=O)(=O)c1cc(NC(=O)Cc2ccccc2F)ccc1-c1cnn(C2CCNCC2)c1 [Example 270, 2-(2-Fluorophenyl)-N-{4-[1-(piperidin-4-yl)-1H-pyrazol-4-yl]-3-sulfamoylphenyl}acetamide]

Emax: 60%
IC50: 35 nM
SMILES: Cc1ccn(-c2ccc(NC(=O)Cc3ccccc3Cl)cc2S(N)(=O)=O)n1 [Example 273, 2-(2-Chlorophenyl)-N-[4-(3-methyl-1H-pyrazol-1-yl)-3-sulfamoylphenyl]acetamide]

Emax: 90%
IC50: 186 nM
SMILES: COCCn1cc(-c2ccc(NC(=O)Cc3ccc(F)cc3Cl)cc2S(N)(=O)=O)cn1 [Example 277, 2-(2-Chloro-4-fluorophenyl)-N-{4-[1-(2-methoxyethyl)-1H-pyrazol-4-yl]-3-sulfamoyl-phenyl}acetamide]

Emax: 96%
IC50: 61 nM
SMILES: NS(=O)(=O)c1cc(NC(=O)Cc2ccccc2Cl)ccc1-c1cnn(CCOC(F)(F)F)c1 [Example 279, 2-(2-Chlorophenyl)-N-(3-sulfamoyl-4-{1-[2-(trifluoromethoxy)ethyl]-1H-pyrazol-4-yl}phenyl)acetamide]

Continued, compound first:

SMILES: NS(=O)(=O)c1cc(NC(=O)Cc2ccccc2Cl)ccc1-c1noc(C(F)(F)F)n1 [Example 261, 2-(2-Chlorophenyl)-N-{3-sulfamoyl-4-[5-(trifluoromethyl)-1,2,4-oxadiazol-3-yl]phenyl}acetamide]
Emax: 81%
IC50: 111 nM

SMILES: NS(=O)(=O)c1cc(NC(=O)Cc2ccccc2Cl)ccc1-c1ccccc1 [Example 266, 2-(2-Chlorophenyl)-N-(2-sulfamoylbiphenyl-4-yl)acetamide]
Emax: 94%
IC50: 7 nM

SMILES: NS(=O)(=O)c1cc(NC(=O)Cc2ccccc2Cl)ccc1-c1cnn(CC2CC2)c1 [Example 267, 2-(2-Chlorophenyl)-N-{4-[1-(cyclopropylmethyl)-1H-pyrazol-4-yl]-3-sulfamoyl-phenyl}acetamide]
Emax: 98%
IC50: 2 nM

SMILES: NS(=O)(=O)c1cc(NC(=O)Cc2ccccc2Cl)ccc1-c1cnn(C2CCNCC2)c1 [Example 269, 2-(2-Chlorophenyl)-N-{4-[1-(piperidin-4-yl)-1H-pyrazol-4-yl]-3-sulfamoylphenyl}-acetamide]
Emax: 81%
IC50: 1040 nM

SMILES: NS(=O)(=O)c1cc(NC(=O)Cc2ccccc2Cl)ccc1-c1cnn(C2CNC2)c1 [Example 271, N-{4-[1-(Azetidin-3-yl)-1H-pyrazol-4-yl]-3-sulfamoylphenyl}-2-(2-chlorophenyl)-acetamide]
Emax: 82%
IC50: 1150 nM

SMILES: NS(=O)(=O)c1cc(NC(=O)Cc2cccc(Cl)c2)ccc1-c1ccccc1 [Example 272, 2-(3-Chlorophenyl)-N-(2-sulfamoylbiphenyl-4-yl)acetamide]
Emax: 90%
IC50: 507 nM

SMILES: NS(=O)(=O)c1cc(NC(=O)Cc2ccccc2Cl)ccc1-c1ccc(Cl)nc1 [Example 274, 2-(2-Chlorophenyl)-N-[4-(6-chloropyridin-3-yl)-3-sulfamoylphenyl]acetamide]
Emax: 97%
IC50: 19 nM

SMILES: Cc1noc(C)c1-c1ccc(NC(=O)Cc2ccccc2Cl)cc1S(N)(=O)=O [Example 275, 2-(2-Chlorophenyl)-N-[4-(3,5-dimethyl-1,2-oxazol-4-yl)-3-sulfamoylphenyl]acetamide]
Emax: 82%
IC50: 507 nM

SMILES: CC1(Cn2cc(-c3ccc(NC(=O)Cc4ccccc4Cl)cc3S(N)(=O)=O)cn2)COC1 [Example 276, 2-(2-Chlorophenyl)-N-(4-{1-[(3-methyloxetan-3-yl)methyl]-1H-pyrazol-4-yl}-3-sulfamoylphenyl)acetamide]
Emax: 96%
IC50: 195 nM

SMILES: NS(=O)(=O)c1cc(NC(=O)Cc2ccc(F)cc2Cl)ccc1-c1cnn(C2CC2)c1 [Example 278, 2-(2-Chloro-4-fluorophenyl)-N-[4-(1-cyclopropyl-1H-pyrazol-4-yl)-3-sulfamoyl-phenyl]acetamide]
Emax: 102%
IC50: 93 nM

SMILES: NS(=O)(=O)c1cc(NC(=O)Cc2ccccc2Cl)ccc1-c1cnn(C2CCC2)c1 [Example 280, 2-(2-Chlorophenyl)-N-[4-(1-cyclobutyl-1H-pyrazol-4-yl)-3-sulfamoylphenyl]acetamide]
Emax: 101%
IC50: 60 nM

SMILES: NS(=O)(=O)c1cc(NC(=O)Cc2ccccc2Cl)ccc1-c1cnn(CCN2CCCC2)c1 [Example 281, 2-(2-Chlorophenyl)-N-(4-{1-[2-(pyrrolidin-1-yl)ethyl]-1H-pyrazol-4-yl}-3-sulfamoyl-phenyl)acetamide]
Emax: 76%
IC50: 481 nM

SMILES: N#Cc1cncc(-c2ccc(NC(=O)Cc3ccccc3Cl)cc2S(N)(=O)=O)c1 [Example 282, 2-(2-Chlorophenyl)-N-[4-(5-cyanopyridin-3-yl)-3-sulfamoylphenyl]acetamide]
Emax: 80%
IC50: 56 nM

SMILES: NS(=O)(=O)c1cc(NC(=O)Cc2ccccc2Cl)ccc1-c1cnn(CC2CCO2)c1 (stereo not drawn) [Example 283, 2-(2-Chlorophenyl)-N-(4-{1-[oxetan-2-ylmethyl]-1H-pyrazol-4-yl}-3-sulfamoylphenyl)-acetamide]
Emax: 94%
IC50: 60 nM
